Measurements from PubChem BioAssay (NCI).
Values joined by “and” are separate entries in the source; they are usually repeats but may differ in a detail not shown here. Equal values may be shown once.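 In this assay, cells in 96-well plates receive the compound at five concentrations for 48 hours. Endpoints are linearly interpolated between the surrounding concentrations. Abbreviation: GI50, concentration required for 50% inhibition of growth. TGI is the concentration that stops growth completely.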

Columns and labels:
Experiment in all cases: growth of human tumour cells (NCI), 48 h
SK-MEL-2 melanoma = system: SK-MEL-2 melanoma
OVCAR-8 ovarian = system: OVCAR-8 ovarian
SNB-19 CNS = system: SNB-19 CNS
MALME-3M melanoma = system: MALME-3M melanoma
NCI-H460 lung = system: NCI-H460 lung
MOLT-4 leukemia = system: MOLT-4 leukemia
SR leukemia = system: SR leukemia
OVCAR-5 ovarian = system: OVCAR-5 ovarian
MCF7 breast = system: MCF7 breast
CAKI-1 renal = system: CAKI-1 renal

Structure (SMILES)	GI50 (SK-MEL-2 melanoma)	TGI (SK-MEL-2 melanoma) [µM]	GI50 (OVCAR-8 ovarian) [µM]	TGI (OVCAR-8 ovarian) [µM]	GI50 (SNB-19 CNS) [µM]	TGI (SNB-19 CNS) [µM]	GI50 (MALME-3M melanoma) [µM]	TGI (MALME-3M melanoma) [µM]	GI50 (NCI-H460 lung) [µM]	TGI (NCI-H460 lung) [µM]	GI50 (MOLT-4 leukemia) [µM]	TGI (MOLT-4 leukemia) [µM]	GI50 (SR leukemia) [µM]	TGI (SR leukemia) [µM]	GI50 (OVCAR-5 ovarian) [µM]	TGI (OVCAR-5 ovarian) [µM]	GI50 (MCF7 breast) [µM]	TGI (MCF7 breast) [µM]	GI50 (CAKI-1 renal) [nM]	TGI (CAKI-1 renal) [µM]
Cc1[cH-]c(=O)n(-c2ccccc2)n1.[Au+].[Au].c1ccc([PH+](c2ccccc2)c2ccccc2)cc1.c1ccc([PH+](c2ccccc2)c2ccccc2)cc1	4.64 µM and 8.64 µM	23.5	14.6	41.5	12.5	32.7	9.61	31.1	14.4	37.7	36.6	> 100	26.4	> 100	> 100	> 100	–	–	–	–
CCCCCCCCCCSC(=N)N (tested in a mixture with another compound)	–	–	3.05	9.64	4.28	18.2	2.24	5.07	2.64	6.28	1.85	5.51	2.34	6.9	13.1	32.7	2.75	10.4	2030	5.04
C[C@@H]1CC[C@H]2C(C)(C)[C@H]3C[C@@]12CC[C@@]3(C)O	–	> 100	–	> 100	–	> 100	–	–	–	34.9	–	> 100	–	48.6	–	> 100	–	> 100	–	> 100
C=C1C(=O)O[C@H]2[C@H]1CC/C(CNC(=O)c1cc3ccccc3[nH]1)=C\CC[C@@]1(C)O[C@@H]21	1.88 µM	4.29	2.08	5.87	7.73	23	1.78	3.6	4.09	17.3	1.6	4.55	0.319	3.4	2.37	6.26	–	–	1270	4.26
CN1C(=O)C(=O)N2c3ccc(Cl)cc3C3(c4ccccc4)N=CC12O3 (configuration not stated)	–	30.5	–	12.8	–	26.8	–	47.2	–	25.8	–	7.56	–	–	–	20	–	–	–	42.7
O=c1[nH]c(-c2ccccc2)nc2cc(Cl)ccc12	–	> 100	–	> 100	–	–	–	> 100	–	> 100	–	> 100	–	–	–	> 100	–	–	–	> 100
N#CC(C(=O)CCC(=O)Nc1ccc(Cl)c(Cl)c1)c1ccccc1 (configuration not stated)	–	> 100	–	> 100	–	> 100	–	> 100	–	–	–	> 100	–	–	–	> 100	–	–	–	> 100
CCCOc1nc(N)c2cnn(C3CCCCO3)c2n1 (configuration not stated)	–	> 100	–	> 100	–	> 100	–	> 100	–	> 100	–	> 100	–	> 100	–	> 100	–	–	–	> 100
O=C(NC1C=CCC2C(=O)N(c3ccccc3)C(=O)C12)OCc1ccccc1 (configuration not stated)	–	> 100	–	> 100	–	> 100	–	–	–	> 100	–	> 100	–	> 100	–	> 100	–	–	–	> 100
O=C1C(C(Nc2ccccc2)c2ccccc2)=C([O-])c2ccccc21.O=C1C(C(Nc2ccccc2)c2ccccc2)=C([O-])c2ccccc21.[Cu+2] (configuration not stated)	–	–	41.9	> 100	> 100	> 100	65.8	> 100	40	> 100	25.5	> 100	42.2	> 100	–	–	–	–	> 100000	> 100
CN(C)CC1CCC/C1=N/OC(=O)c1ccccc1 (configuration not stated)	–	> 100	–	> 100	–	–	–	–	–	> 100	–	> 100	–	> 100	–	> 100	–	–	–	> 100
CC1(C)CC(c2c[nH]c3ccccc23)=CC2=Nc3ccccc3C21O (configuration not stated)	–	> 100	–	> 100	–	> 100	–	> 100	–	> 100	–	> 100	–	–	–	> 100	–	–	–	> 100
O=S1C(=c2ccc(=C3Sc4ccccc4S3)cc2)Sc2ccccc21 (configuration not stated)	–	50.6	–	34.4	–	30.7	–	> 100	–	> 54.8	–	> 100	–	> 100	–	32.4	–	–	–	> 91.1
COC1=CC(=O)C(C2(OC(C)C)OC(=O)C(Cl)=C2Cl)=CC1=O (configuration not stated)	–	98.8	–	78.8	–	> 100	–	> 100	–	> 100	–	–	–	–	–	> 100	–	> 100	–	> 100
[O-][Cl+3]([O-])([O-])[O-].[O]=[Ru]=[O].c1ccc(-c2ccccn2)nc1.c1ccc(-c2ccccn2)nc1	> 100 µM	> 100	> 100	> 100	65.2	> 100	> 100	> 100	56.1	> 100	> 100	> 100	4.07	34.7	> 100	> 100	–	–	> 100000	> 100
O=c1c2cccnc2ncn1CCN1CCCCC1	–	> 100	–	> 100	–	> 100	–	> 100	–	> 100	–	> 100	–	> 100	–	> 100	–	–	–	> 100
CCC(C)SC1SCC2C(=O)N(C)C3(CC3C)C(=O)OCC(NC(=O)c3nc4ccccc4cc3O)C(=O)NC(C)C(=O)N(C)C1C(=O)N(C)C1(CC1C)C(=O)OCC(NC(=O)c1nc3ccccc3cc1O)C(=O)NC(C)C(=O)N2C (configuration not stated)	–	0.000304	–	0.0133	–	0.0296	–	0.000422	–	0.0262	–	0.0687	–	–	–	0.00256	–	–	0.087	–
NCCNCCNCCN	> 100 µM	> 100	> 100	> 100	> 100	> 100	–	–	> 100	> 100	> 100	> 100	> 100	> 100	> 100	> 100	> 100	> 100	> 100000	> 100
Cc1ccc(NC2=C3CCCCC3OC2=O)cc1 (configuration not stated)	–	–	78.4	> 100	63.8	> 100	39.2	> 100	> 100	> 100	19.1	86	39.5	> 100	> 100	> 100	20.5	> 100	49500	> 100
